Measured values: patent publication US20200325509A1, “Microorganisms and Methods in the Fermentation of Benzylisoquinoline Alkaloids” (Intrexon Corporation, priority 2017, published 2020)

Experiments:
THS2 = THS2 (Papaver somniferum, UniProt A0A2U9GGW3); assay: direct in vitro THS assay (kinetic analysis of THS2); settings: for inhibition of THS2 activity on (7S)-salutaridinol 7-O-acetate: added to the direct assay
[1] = stability of salutaridinol 7-O-acetate in chloroform and aqueous conditions
[2] = substrate of purified recombinant THS2, direct assay quenched after 30 sec

Sequence of THS2 (A0A2U9GGW3 whole entry): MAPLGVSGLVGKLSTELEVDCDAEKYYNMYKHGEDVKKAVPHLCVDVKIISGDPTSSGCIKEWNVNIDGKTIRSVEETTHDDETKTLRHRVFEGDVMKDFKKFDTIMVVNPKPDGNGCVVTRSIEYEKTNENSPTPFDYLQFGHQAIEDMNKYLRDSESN

Compound | inhibition of THS2 activity on (7S)-salutaridinol 7-O-acetate (THS2) | thebaine production by THS2 directly from the substance (THS2; pH 7.0) | pH optimum (THS2; THS2 activity on this substrate, direct assay 30 sec, 40 μM substrate) | positive cooperativity (η) (THS2; substrate of purified recombinant THS2, direct assay) | KA (THS2; [2]) | Vmax (THS2; [2]) | formation of m/z 330-byproduct ([1]; exposure to aqueous conditions) | time of formation of m/z 330-byproduct ([1]; exposure to aqueous conditions) | stability ([1]; in chloroform)
COC1=C[C@]23CCN(C)[C@H](Cc4ccc(OC)c(O)c42)C3=C[C@@H]1O [(7S)-salutaridinol] | marginally inhibited | did not produce thebaine |  |  |  |  |  |  | 
COC1=C[C@]23CCN(C)[C@H](Cc4ccc(OC)c(O)c42)C3=C[C@@H]1OC(C)=O [(7S)-salutaridinol 7-O-acetate] |  |  | 8.0 | 2.3 | 20 µM | 4.0 nmol min^1 μg^−1 | > 70% | < 2 min | relatively stable
COC1=C[C@]23CCN(C)[C@H](Cc4ccc(OC)c(O)c42)C3=CC1=O [salutaridine] | marginally inhibited |  |  |  |  |  |  |  | 
